Here are results for one molecule from patent US20080145858A1, “DETECTION AND IDENTIFICATION OF TOXICANTS BY MEASUREMENT OF GENE […]” (priority 2003, published 2008).

The test system of this data set is Xenopus laevis embryos. Briefly: Embryonic morphology after PMA treatment. Conditions: added 21 hours after fertilization, 18° C. for 30 hours; untreated showed typical neurula. Type of data set: in vivo. The method, then: Embryos were sorted for successful cleavage to 2 cells (1.5 hours after fertilization), split into groups for subsequent treatment (triplicate treatments per each experimental group) and visually monitored for normal embryonic morphology. Rates of abnormal morphology were recorded for each group. Embryos at stage 8 were obtained after incubation of the fertilized embryos at 23° C. for 5 hours. PMA (100 ng/ml) or DMSO (0.01%, solvent used to dissolve PMA) was added to the embryos 2 hours after fertilization. […] Embryos at stage 15 were obtained after incubation of the fertilized embryos at 18° C. for 30 hours (the condition produced stage 15 embryos identical to embryos obtained at 23° C. for 10 hours). PMA or DMSO was added to the embryos 21 hours after fertilization.

For `CCCCCCCCCCCCCC(=O)O[C@@H]1[C@@H](C)[C@@]2(O)[C@@H](C=C(CO)C[C@@]3(O)C(=O)C(C)=C[C@@H]23)[C@@H]2C(C)(C)[C@]12OC(C)=O` [4 alpha-PMA], the “embryo morphology / developmental stage reached” value is “typical neurula morphology”.
